Assay results: patent US8039490B2, “Benzoyl-piperidine derivatives as dual modulators of the 5-HT2A and D3 receptors” (Hoffmann-La Roche Inc., priority 2006, dated 2011)

What was measured:
[1] = target: T1, human 5-HT2A serotonin receptor (Homo sapiens, UniProt P28223); experiment: Radioligand binding, human 5-HT2A receptor ([3H]-ketanserin); settings: second value of the cell; membranes of transfected HEK-293 EBNA cells, 1.1 nM [3H]-ketanserin; read-out: Ki(nM) D3/5HT2A/D2: 5HT2A
T1 construct: expressed in transfected cells; host or cells: HEK-293 EBNA cells (transient transfection), membrane preparation
Method: (§1) The cells were harvested 48 h post-transfection, washed three times with cold PBS and stored at −80° C. prior to use. The pellet was suspended in cold 50 mM Tris-HCl buffer containing 10 mM EDTA (pH 7.4) and homogenized with a Polytron (Kinematica AG, Basel, Switzerland) for 20-30 sec at 12.000 rpm. After centrifugation at 48.000×g for 30 min at 4° C., the pellet was resuspended in cold 10 mM Tris-HCl buffer containing 0.1 mM EDTA (pH 7.4), homogenized, and centrifuged as above. This pellet was further resuspended in a smaller volume of ice cold 10 mM Tris-HCl buffer containing 0.1 mM EDTA (pH 7.4) and homogenized with a Polytron for 20-30 sec at 12.000 rpm. The protein content of this homogenate was determined with the Bio-Rad (Bradford) Protein Assay (Biorad Laboratories GmbH, München, Germany) according to the instructions of the manufacturer using gamma globulin as the standard. This homogenate was stored at −80° C. in aliquots and thawed immediately prior to use.
(§2) Aliquots of membrane preparations were thawed at RT, resupended in assay buffer (D2, D3: 50 mM Tris-HCl, 120 mM NaCl, 5 mM MgCl2, 1 mM EDTA, 5 mM KCl, 1.5 mM CaCl2, pH=7.4; 5-HT2A: 50 mM Tris-HCl, 10 mM MgCl2, 1 mM EGTA, pH=7.4), homogenized with a Polytron for 20-30 sec at 12.000 rpm and adjusted to a final concentration of approximately 7.5 μg protein/well (D2, D3) and 15 μg protein/well (5-HT2A), respectively.
(§3) The binding affinity (Ki) of the compounds was determined using radioligand binding. […] The nonspecific binding was determined with equally composed reaction mixtures in the presence of 10 μM unlabelled spiperone. Per well 45 μl of Microscint 40 (Perkin Elmer, Schwerzenbach, Switzerland) was added, plates for sealed, shaken for 20 min and counted for 3 min on a Topcount Microplate Scintillation Counter (Canberra Packard SA, Zürich, Switzerland) with quenching correction.
(§4) The CPM value for each duplicate of a concentration of competing compound was averaged (y1), then the % specific binding was calculated according to the equation (((y1−non-specific)/(total binding-non-specific))×100). Graphs were plotted with the % specific binding using XLfit, a curve fitting program that iteratively plots the data using Levenburg Marquardt algorithm. The single site competition analysis equation used was y=A+((B−A)/(+((x/C)^D))), where y is the % specific binding, A is the minimum y, B is the maximum y, C is the IC50, x is the log10 of the concentration of the competing compound and D is the slope of the curve (the Hill Coefficient). […] The affinity constant (Ki) was calculated using the Cheng-Prusoff equation KI =(IC50/1+([L]/Kd), where [L] is the concentration of radioligand and Kd is the dissociation constant of the radioligand at the receptor as determined by the saturation isotherm.

[2] = target: T2, human D2 dopamine receptor (Homo sapiens, UniProt P14416); experiment: Radioligand binding, human D2 receptor ([3H]-spiperone); settings: third value of the cell; membranes of transfected HEK-293 EBNA cells, 0.7 nM [3H]-spiperone; read-out: Ki(nM) D3/5HT2A/D2: D2
T2 construct: expressed in transfected cells; host or cells: HEK-293 EBNA cells (transient transfection), membrane preparation
Method: as §1, §2, §3, §4

[3] = target: T3, human D3 dopamine receptor (Homo sapiens, UniProt P35462); experiment: Radioligand binding, human D3 receptor ([3H]-spiperone); settings: first value of the cell; membranes of transfected HEK-293 EBNA cells, 0.5 nM [3H]-spiperone; read-out: Ki(nM) D3/5HT2A/D2: D3
T3 construct: expressed in transfected cells; host or cells: HEK-293 EBNA cells (transient transfection), membrane preparation
Method: as §1, §2, §3, §4

T2 sequence (P14416 whole entry): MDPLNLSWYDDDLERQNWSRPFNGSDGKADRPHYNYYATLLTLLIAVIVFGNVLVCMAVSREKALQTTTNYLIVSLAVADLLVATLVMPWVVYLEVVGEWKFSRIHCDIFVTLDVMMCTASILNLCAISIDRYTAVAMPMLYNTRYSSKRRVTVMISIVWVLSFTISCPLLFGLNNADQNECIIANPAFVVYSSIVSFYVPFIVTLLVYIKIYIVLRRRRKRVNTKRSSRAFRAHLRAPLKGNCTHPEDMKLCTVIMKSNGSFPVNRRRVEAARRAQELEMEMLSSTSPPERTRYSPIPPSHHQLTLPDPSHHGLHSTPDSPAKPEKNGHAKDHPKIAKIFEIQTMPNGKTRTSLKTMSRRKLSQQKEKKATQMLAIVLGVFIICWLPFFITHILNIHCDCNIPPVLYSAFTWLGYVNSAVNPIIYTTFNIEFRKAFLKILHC
T3 sequence (P35462 whole entry): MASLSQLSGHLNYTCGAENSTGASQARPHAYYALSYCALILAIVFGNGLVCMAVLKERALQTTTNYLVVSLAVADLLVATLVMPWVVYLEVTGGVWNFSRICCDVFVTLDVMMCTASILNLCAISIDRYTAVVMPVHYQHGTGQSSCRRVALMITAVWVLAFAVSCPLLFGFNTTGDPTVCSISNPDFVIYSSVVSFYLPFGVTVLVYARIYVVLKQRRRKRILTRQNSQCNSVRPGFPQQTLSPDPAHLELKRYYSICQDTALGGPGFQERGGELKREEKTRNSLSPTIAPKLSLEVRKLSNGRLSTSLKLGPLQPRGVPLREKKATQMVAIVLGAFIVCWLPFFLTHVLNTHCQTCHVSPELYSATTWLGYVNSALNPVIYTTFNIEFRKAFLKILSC
T1 sequence (P28223 whole entry): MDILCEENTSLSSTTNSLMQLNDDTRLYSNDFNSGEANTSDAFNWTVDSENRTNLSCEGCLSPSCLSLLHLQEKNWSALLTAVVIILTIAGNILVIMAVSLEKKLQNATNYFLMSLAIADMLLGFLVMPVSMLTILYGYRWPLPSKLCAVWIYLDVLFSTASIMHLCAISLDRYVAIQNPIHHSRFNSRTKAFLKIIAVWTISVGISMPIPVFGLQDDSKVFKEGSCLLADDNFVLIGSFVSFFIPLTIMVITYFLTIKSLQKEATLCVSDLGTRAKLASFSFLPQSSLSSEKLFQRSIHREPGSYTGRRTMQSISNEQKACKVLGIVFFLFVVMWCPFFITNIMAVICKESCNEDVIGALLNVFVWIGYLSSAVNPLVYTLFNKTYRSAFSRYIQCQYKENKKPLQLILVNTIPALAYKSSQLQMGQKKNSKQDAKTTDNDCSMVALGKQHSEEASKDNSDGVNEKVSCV

Compound | Ki [1] [nM] | Ki [2] [nM] | Ki [3] [nM]
CCOCCC(=O)N[C@H]1CC[C@H](CCN2CCC(C(=O)c3ccc(F)cc3)CC2)CC1 [Example 25, 3-Ethoxy-N-trans (4-{2-[4-(4-fluoro-benzoyl)-piperidin-1-yl]-ethyl}-cyclohexyl)-propionamide] | 269 | 777 | 13
Cc1nc(-c2cccc(C(=O)N[C@H]3CC[C@H](CCN4CCC(O)(C(=O)c5ccc(F)cc5)CC4)CC3)c2)no1 [Example 57, N-trans (4-{2-[4-(4-Fluoro-benzoyl)-4-hydroxy-piperidin-1-yl]-ethyl}-cyclohexyl)-3-(5-methyl-[1,2,4]oxadiazol-3-yl)-benzamide] | 21 | 1330 | 53
O=C(N[C@H]1CC[C@H](CCN2CCC(O)(C(=O)c3ccccc3)CC2)CC1)c1ccnc2ccccc12 [Example 33, Quinoline-4-carboxylic acid trans-{4-[2-(4-benzoyl-4-hydroxy-piperidin-1-yl)-ethyl]-cyclohexyl}-amide] | 65 | 1980 | 110
O=C(N[C@H]1CC[C@H](CCN2CCC(F)(C(=O)c3ccccc3)CC2)CC1)c1ccnc2ccccc12 [Example 34, Quinoline-4-carboxylic acid trans-{4-[2-(4-benzoyl-4-fluoro-piperidin-1-yl)-ethyl]-cyclohexyl}-amide] | 6 | 192 | 23
Cc1ccc(NC(=O)N[C@H]2CC[C@H](CCN3CCC(C(=O)c4ccc(F)cc4)CC3)CC2)cc1 [Example 41, Trans-1-(4-{2-[4-(4-Fluoro-benzoyl)-piperidin-1-yl]-ethyl}-cyclohexyl)-3-p-tolyl-urea] | 11 | 677 | 4
CC(C)(CO)C(=O)N[C@H]1CC[C@H](CCN2CCC(C(=O)c3ccc(F)cc3)CC2)CC1 [Example 30A29, N-trans (4-{2-[4-(4-Fluoro-benzoyl)-piperidin-1-yl]-ethyl}-cyclohexyl)-3-hydroxy-2,2-dimethyl-propionamide] | 25 | 1010 | 207
Trans-1-(4-Ethoxy-phenyl)-3-(4-{2-[4-(4-fluoro-benzoyl)-piperidin-1-yl]-ethyl}-cyclohexyl)-urea [Example 40] | 9 | 502 | 8
O=C(Nc1ccc(Cl)cc1)N[C@H]1CC[C@H](CCN2CCC(C(=O)c3ccc(F)cc3F)CC2)CC1 [Example 64, 1-(4-Chloro-phenyl)-3-trans (4-{2-[4-(2,4-difluoro-benzoyl)-piperidin-1-yl]-ethyl}-cyclohexyl)-urea] | 26 | 4000 | 4
O=C(CO)NC1CCC(CCN2CCC(C(=O)c3ccc(F)cc3F)CC2)CC1 (stereo not drawn) [Example 63A14, N-(4-{2-[4-(2,4-Difluoro-benzoyl)-piperidin-1-yl]-ethyl}-cyclohexyl)-2-hydroxy-acetamide] | 83 | 8540 | 44
